# Assay results taken from US20200085789A1, “USE OF A PROTEASOME INHIBITOR FOR THE TREATMENT OF CENTRAL NERVOUS SYSTEM (CNS) CANCERS” (Celgene International II Sàrl, priority 2017, published 2020).
# Experiment: Adverse events and dose-limiting toxicity (NCI-CTCAE v 4.03), MRZ ± BEV in recurrent grade IV malignant glioma patients
# Type: in vivo, human
# Excerpt: An adverse event (AE) is any noxious, unintended, or untoward medical occurrence that may appear or worsen in a subject during the course of a study. […] Any worsening (i.e., any clinically significant adverse change in the frequency or intensity of a pre-existing condition) should be considered an AE.
# The severity/intensity of AEs will be graded based upon the subject's symptoms according to the current active minor version of the Common Terminology Criteria for Adverse Events ( ).
# [1] = treated with MRZ 0.8 mg/m^2 + BEV (N = 27)
smiles,measurement,setting,value
"C[C@@]12OC(=O)[C@]1([C@@H](O)[C@@H]1C=CCCC1)NC(=O)[C@@H]2CCCl [MRZ, marizomib]","Fall: patients, worst Grade 2","Part 1 N = 36, Part 2 N = 30",1
same,"Fatigue: patients, Total","Part 1 N = 36, Part 2 N = 30",20
same,"Fatigue: patients, worst Grade 1","Part 1 N = 36, Part 2 N = 30",8
same,"Fatigue: patients, worst Grade 2","Part 1 N = 36, Part 2 N = 30",11
same,"Fatigue: patients, worst Grade 3","Part 1 N = 36, Part 2 N = 30",2
same,"Hallucination: patients, Total","Part 1 N = 36, Part 2 N = 30",12
same,"Hallucination: patients, worst Grade 1","Part 1 N = 36, Part 2 N = 30",6
same,"Hallucination: patients, worst Grade 2","Part 1 N = 36, Part 2 N = 30",4
same,"Hallucination: patients, worst Grade 3","Part 1 N = 36, Part 2 N = 30",1
same,"Hallucination: patients, worst Grade 4","Part 1 N = 36, Part 2 N = 30",1
same,"Headache: patients, Total","Part 1 N = 36, Part 2 N = 30",14
same,"Headache: patients, worst Grade 1","Part 1 N = 36, Part 2 N = 30",10
same,"Headache: patients, worst Grade 2","Part 1 N = 36, Part 2 N = 30",3
same,"Headache: patients, worst Grade 3","Part 1 N = 36, Part 2 N = 30",1
same,"Hyperglycemia: patients, Total","Part 1 N = 36, Part 2 N = 30",7
same,"Hyperglycemia: patients, worst Grade 1","Part 1 N = 36, Part 2 N = 30",2
same,"Hyperglycemia: patients, worst Grade 2","Part 1 N = 36, Part 2 N = 30",4
same,"Hyperglycemia: patients, worst Grade 3","Part 1 N = 36, Part 2 N = 30",1−
same,"Hypertension: patients, Total","Part 1 N = 36, Part 2 N = 30",4
same,"Hypertension: patients, worst Grade 1","Part 1 N = 36, Part 2 N = 30",1
same,"Hypertension: patients, worst Grade 2","Part 1 N = 36, Part 2 N = 30",1
same,"Hypertension: patients, worst Grade 3","Part 1 N = 36, Part 2 N = 30",2
same,"Hypokalemia: patients, Total","Part 1 N = 36, Part 2 N = 30",9
same,"Hypokalemia: patients, worst Grade 1","Part 1 N = 36, Part 2 N = 30",7
same,"Hypokalemia: patients, worst Grade 2","Part 1 N = 36, Part 2 N = 30",2
same,"Infusion Site Reaction (includes edema, pain, phlebitis, redness): patients, Total","Part 1 N = 36, Part 2 N = 30",5
same,"Infusion Site Reaction: patients, worst Grade 1","Part 1 N = 36, Part 2 N = 30",3
same,"Infusion Site Reaction: patients, worst Grade 2","Part 1 N = 36, Part 2 N = 30",2
same,"Insomnia: patients, Total","Part 1 N = 36, Part 2 N = 30",1.
same,"Insomnia: patients, worst Grade 1","Part 1 N = 36, Part 2 N = 30",7
same,"Insomnia: patients, worst Grade 2","Part 1 N = 36, Part 2 N = 30",5
same,"Insomnia: patients, worst Grade 3","Part 1 N = 36, Part 2 N = 30",1
same,"Nausea: patients, Total","Part 1 N = 36, Part 2 N = 30",11
same,"Nausea: patients, worst Grade 1","Part 1 N = 36, Part 2 N = 30",7
same,"Nausea: patients, worst Grade 2","Part 1 N = 36, Part 2 N = 30",2
same,"Nausea: patients, worst Grade 3","Part 1 N = 36, Part 2 N = 30",2
same,"Platelet Count Decreased: patients, Total","Part 1 N = 36, Part 2 N = 30",7
same,"Platelet Count Decreased: patients, worst Grade 1","Part 1 N = 36, Part 2 N = 30",7
same,"Vomiting: patients, Total","Part 1 N = 36, Part 2 N = 30",10
same,"Vomiting: patients, worst Grade 1","Part 1 N = 36, Part 2 N = 30",8
same,"Vomiting: patients, worst Grade 3","Part 1 N = 36, Part 2 N = 30",2
same,marizomib-related adverse events ≥3: confusional state,Phase 1,3
same,marizomib-related adverse events ≥3: headache,Phase 1,3
same,patients with marizomib-related serious adverse events,Phase 1,Four
same,"Grade 4 serious adverse event (hallucination, MRZ-related)",Phase 2 monotherapy,one
same,treatment-related Grade ≥3 AEs in two or more patients,Phase 2 monotherapy,"fatigue, hallucination, lethargy"
same,"Grade 4 serious adverse event (hallucination, MRZ-related)","Phase 2 monotherapy, listed as marizomib",One
same,"Anaemia: # Patients, AE related to the labelled drug(s)",pts on MRZ+BEV,6
same,"Anxiety: # Patients, AE related to the labelled drug(s)",pts on MRZ+BEV,0
same,"Aphasia: # Patients, AE related to the labelled drug(s)",pts on MRZ+BEV,0
same,"Appendicitis Perforated: # Patients, AE related to the labelled drug(s)",pts on MRZ+BEV,0
same,"Asthenia: # Patients, AE related to the labelled drug(s)",pts on MRZ+BEV,0
same,"Ataxia: # Patients, AE related to the labelled drug(s)",pts on MRZ+BEV,6
same,"Confusional State: # Patients, AE related to the labelled drug(s)",pts on MRZ+BEV,6
same,"Constipation: # Patients, AE related to the labelled drug(s)",pts on MRZ+BEV,4
same,"Convulsion: # Patients, AE related to the labelled drug(s)",pts on MRZ+BEV,0
same,"Delusion: # Patients, AE related to the labelled drug(s)",pts on MRZ+BEV,1
same,"Depressed Level of Consciousness: # Patients, AE related to the labelled drug(s)",pts on MRZ+BEV,0
same,"Diarrhoea: # Patients, AE related to the labelled drug(s)",pts on MRZ+BEV,9
same,"Dizziness: # Patients, AE related to the labelled drug(s)",pts on MRZ+BEV,8
same,"Dysarthria: # Patients, AE related to the labelled drug(s)",pts on MRZ+BEV,1
same,"Dysphagia: # Patients, AE related to the labelled drug(s)",pts on MRZ+BEV,0
same,"Dysphonia: # Patients, AE related to the labelled drug(s)",pts on MRZ+BEV,0
same,"Dyspnoea: # Patients, AE related to the labelled drug(s)",pts on MRZ+BEV,0
same,"Ear Infection: # Patients, AE related to the labelled drug(s)",pts on MRZ+BEV,0
same,"Embolism: # Patients, AE related to the labelled drug(s)",pts on MRZ+BEV,0
same,"Epistaxis: # Patients, AE related to the labelled drug(s)",pts on MRZ+BEV,0
same,"Falls: # Patients, AE related to the labelled drug(s)",pts on MRZ+BEV,3
same,"Fatigue: # Patients, AE related to the labelled drug(s)",pts on MRZ+BEV,1
same,"Fracture of Femur: # Patients, AE related to the labelled drug(s)",pts on MRZ+BEV,0
same,"Haemorrhage Intracranial: # Patients, AE related to the labelled drug(s)",pts on MRZ+BEV,0
same,"Hallucination: # Patients, AE related to the labelled drug(s)",pts on MRZ+BEV,11
same,"Headache: # Patients, AE related to the labelled drug(s)",pts on MRZ+BEV,5
same,"Hemiparesis: # Patients, AE related to the labelled drug(s)",pts on MRZ+BEV,0
same,"Hyperglycemia: # Patients, AE related to the labelled drug(s)",pts on MRZ+BEV,0
same,"Hypertension: # Patients, AE related to the labelled drug(s)",pts on MRZ+BEV,0
same,"Hypokalemia: # Patients, AE related to the labelled drug(s)",pts on MRZ+BEV,0
same,"Hyponatremia: # Patients, AE related to the labelled drug(s)",pts on MRZ+BEV,1
same,"Hypotension: # Patients, AE related to the labelled drug(s)",pts on MRZ+BEV,0
same,"Infusion Site Pain: # Patients, AE related to the labelled drug(s)",pts on MRZ+BEV,6
same,"Insomnia: # Patients, AE related to the labelled drug(s)",pts on MRZ+BEV,1
same,"Lymphocyte Count Decreased: # Patients, AE related to the labelled drug(s)",pts on MRZ+BEV,0
same,"Muscular Weakness: # Patients, AE related to the labelled drug(s)",pts on MRZ+BEV,2
same,"Nausea: # Patients, AE related to the labelled drug(s)",pts on MRZ+BEV,19
same,"Optic Nerve Disorder: # Patients, AE related to the labelled drug(s)",pts on MRZ+BEV,0
same,"Pyramidal Tract Syndrome: # Patients, AE related to the labelled drug(s)",pts on MRZ+BEV,0
same,"Tumor Metastasis: # Patients, AE related to the labelled drug(s)",pts on MRZ+BEV,0
same,"Vision Blurred: # Patients, AE related to the labelled drug(s)",pts on MRZ+BEV,3
same,"Vomiting: # Patients, AE related to the labelled drug(s)",pts on MRZ+BEV,12
same,time of onset of CNS adverse events,range,from the day of treatment to six days post-marizomib infusion
same,Anaemia related to the labelled drug(s),[1],(18.5%)
same,"Anaemia related to the labelled drug(s), patients",[1],5
same,Ataxia related to the labelled drug(s),[1],(25.9%)
same,"Ataxia related to the labelled drug(s), patients",[1],7
same,Confusional state related to the labelled drug(s),[1],(25.9%)
same,"Confusional state related to the labelled drug(s), patients",[1],7
same,Constipation related to the labelled drug(s),[1],(18.5%)
same,"Constipation related to the labelled drug(s), patients",[1],5
same,Diarrhoea related to the labelled drug(s),[1],(29.6%)
same,"Diarrhoea related to the labelled drug(s), patients",[1],8
same,Dizziness related to the labelled drug(s),[1],(29.6%)
same,"Dizziness related to the labelled drug(s), patients",[1],8
same,Dysphonia related to the labelled drug(s),[1],(3.7%)
same,"Dysphonia related to the labelled drug(s), patients",[1],1
same,Epistaxis related to the labelled drug(s),[1],(0.0%)
same,"Epistaxis related to the labelled drug(s), patients",[1],0
same,Fall related to the labelled drug(s),[1],(11.1%)
same,"Fall related to the labelled drug(s), patients",[1],3
same,Fatigue related to the labelled drug(s),[1],(70.4%)
same,"Fatigue related to the labelled drug(s), patients",[1],19
same,Hallucination related to the labelled drug(s),[1],(44.4%)
same,"Hallucination related to the labelled drug(s), patients",[1],12
same,Headache related to the labelled drug(s),[1],(44.4%)
same,"Headache related to the labelled drug(s), patients",[1],12
same,Hypertension related to the labelled drug(s),[1],(3.7%)
same,"Hypertension related to the labelled drug(s), patients",[1],1
same,Infusion site pain related to the labelled drug(s),[1],(14.8%)
same,"Infusion site pain related to the labelled drug(s), patients",[1],4
same,Muscular weakness related to the labelled drug(s),[1],(11.1%)
same,"Muscular weakness related to the labelled drug(s), patients",[1],3
same,Nausea related to the labelled drug(s),[1],(63.0%)
same,"Nausea related to the labelled drug(s), patients",[1],17
same,Platelet count decreased related to the labelled drug(s),[1],(7.4%)
same,"Platelet count decreased related to the labelled drug(s), patients",[1],2
same,Stomatitis related to the labelled drug(s),[1],(11.1%)
same,"Stomatitis related to the labelled drug(s), patients",[1],3
same,Upper-airway cough syndrome related to the labelled drug(s),[1],(0.0%)
same,"Upper-airway cough syndrome related to the labelled drug(s), patients",[1],0
same,Vomiting related to the labelled drug(s),[1],(55.6%)
same,"Vomiting related to the labelled drug(s), patients",[1],15
